In patent publication US9682994B2, “Inhibitors of retroviral replication” (The Scripps Research Institute, priority 2011, dated 2017):
Read-outs that look alike come from different tables or passages of the source.

Key:
[1] = tested on: HIV-1 pNL4-3; experiment: Chronically HIV-1 infected HeLa-CD4 cells, viral RNA by qRT-PCR / p24; type: cell-based
Description: FIG. 1G: p24 antigen quantification. Viral supernatants recovered from cells described in FIG. 1B, grown for 60 days, were assayed for their p24 antigen content using a sandwich ELISA kit. Error bars represent standard deviations.
First-strand cDNA from RNA for qPCR was prepared using […]™ first-strand cDNA kit (Invitrogen), following the manufacturer's instructions, using approximately 5 μg of RNA as starting material and random hexamers as first-strand primers. Quantitative PCR was performed with an aliquot of cDNA as template, using […]® 480 SYBR Green I Master (Roche) in a 20 μL reaction according to the manufacturer's instructions. […] The primers used were as follows: […]
Such an early time point rules out de novo infections. […] This conclusion was further supported by the fact that treatment of cells that were chronically infected, and therefore continuously shedding the virus (without incurring new infections, due to down-regulation of CD4 from the cell surface), reduced virus production to undetectable levels (FIG. 1F). […] Results were similar when viral release from cells treated for 60 days were measured by p24 enzyme-linked immunosorbent assay (ELISA) (FIG. 1G).

[2] = tested on: Tat transactivation of the HIV-1 LTR; experiment: Tat transactivation assay, HeLa-CD4-LTR-Luc cells; type: cell-based
Description: Chloroquine 100 μM was added to increase Tat uptake was added to all points except untreated wells. Luciferase activity was measured 24 h later using the Luciferase Assay System (Promega). Luciferase activity per protein concentration of each sample is shown as relative light units (RLU). HI: Heat Inactivated.
FIG. 2B: HeLa-LTR-Luc cells were transfected with 2 μg of a construct expressing Tat-flag driven by the thymidine kinase (TK) promoter. […] Forty hours later RLU determined as in FIG. 2A.
Luciferase activity measured and results adjusted per protein concentration of each sample, relative light units (RLU).
PL11 cells were plated at 1×10^5 cells per well in a 6 well plate. The following day recombinant Tat protein (AIDS Research and Reference Reagent Program, Cat No. 11882) at 5 μg/ml and/or Cortistatin A at increasing concentrations were added to the cells, in culture media without serum and in the presence of 100 μM of chloroquine (increases Tat uptake). Five hours later, serum was added at 5% to the culture media. Forty hours later cells were lysed with 1× Lysis Buffer and luciferase activity was measured as before. Protein concentration was determined by Bradford assay. Results corresponding to the adjustment of the luciferase activity per protein concentration of each sample are shown as RLU. […]

[3] = tested on: Tat; experiment: Biotinylated compound streptavidin-bead pull-down of Tat; type: binding, HIV-1; conditions: flag-tagged Tat expressed in cells or recombinant Tat
Description: HEK293T cells were transfected with flag-tagged Tat 101 a.a. (Tat-F-101-wt), a shorter Tat version with 86 a.a. (Tat-F-86-wt), Tat 86 a.a. mutated in the basic domain (Tat-F-BRM), flag-tagged CDK11 (CDK11-F), flag-tagged 9G8 (9G8-F) and empty vector control.
Recombinant Tat protein was incubated with Bio-dCA streptavidin-coated beads in the presence or absence of an excess of non-biotinylated dCA (represented as molar equivalent [eq.] of Bio-dCA). Raltegravir and recombinant GST-9G8 were used as a negative control competitor or as negative protein-binding control, respectively.
DYNABEADS® MYONE™ Streptavidin T1 (12.5 μl slurry) (Invitrogen) were pre-saturated with 1.88 μl of 1 mM in DMSO of Biotin alone or Bio-dCA and incubated for 1 h at room temperature with orbital rocking, plus an additional 30 min with Biotin (0.63 μl of 1 mM in DMSO). Protein extracts (250 μg per sample) were incubated with the pre-saturated beads in lysis buffer supplemented with 0.1% BSA for 1 h at 4° C. with orbital rocking. After incubation, the beads were washed three times with lysis buffer.
For the pull-down of recombinant Tat (#2222 of NIH) and GST-9G8, streptavidin-agarose beads (40 μl slurry) were pre-saturated with 1.5 μl of 1 mM in DMSO, Biotin alone, or Bio-dCA and incubated for 1 h at room temperature. […] After incubation, the beads were washed three times with PBS and proteins were eluted as before.

[4] = tested on: HIV-1 promoter; experiment: Elongation from HIV-1 promoter by qRT-PCR in chronically infected HeLa cells; type: cell-based; conditions: dose-dependent
Source text: FIG. 3B: HIV-1 elongation from HIV-1 promoter measured by qPCR. […] All messages were normalized relative to GAPDH mRNA. The 100% value was arbitrarily assigned to the amounts of viral mRNA generated in the absence of compound, measured at 100 bp from start site. Right panel: Plotting of data obtained in left panel, setting each data point obtained with the 100 bp primer set at 100% and comparing to results obtained with 5.3 kb primer set.
For these studies, the amounts of viral RNA present at different distances from the promoter were measured using sets of oligonucleotide primer pairs specific to quantify transcripts made up to 100 bp, 5.3 kb or 8.5 kb from the transcription start site (FIG. 3A). It was observed that even in the absence of drug, elongation from the HIV-1 viral promoter is not very efficient. In the presence of DMSO alone only 30% of 5.3 kb long transcripts and 6% of 8.5 kb long transcripts were produced (FIG. 3B—left panel).

[5] = tested on: HIV; experiment: p24 production from CD4+ T cells of viremic HIV-infected subjects; type: cell-based, human; conditions: 100 nM dCA added to ARVs
Description: Viral production was measured in the supernatant by a sensitive in-house ELISA for capsid p24 and normalized to the negative control (Mock). Statistical significance was assessed by a paired t-test.
All patients provided written informed consent, according to the guidelines of the ethics committee of the Oregon Health and Science University. […] Viral production was measured in the supernatant by a sensitive in-house ELISA specific for the viral capsid protein, p24. […] Viral production was measured by quantification of viral particle-associated RNA by ultra-sensitive two-step quantitative real-time reverse transcription-PCR (RT-qPCR). Briefly, viral particles in the cell culture supernatant were pelleted by centrifugation (60 min, 25000 g at 4° C.). To generate the standard curve, a sample of LAI-HIV with known titer was pelleted in the same run. After centrifugation, viral RNA was extracted with the QIAamp viral RNA extraction kit (Qiagen) according to the manufacturer's instructions.
Cells were grown in IL-2 to increase viability.

[6] = Hepatic microsomal stability, human; type: in vitro ADME; conditions: 1 μM, 0.2-1 mg/ml microsomes, NADPH 1 mM
Source text: In vitro studies compared murine and human hepatic microsomes (150 donor mixed male/female pool).

## CN(C)[C@H]1C[C@@]23CC[C@@]4(O2)C(=CC[C@]2(C)C(c5ccc6ccncc6c5)=CC[C@H]24)C=C3[C@@H](O)[C@@H]1O [dCA, didehydro-Cortistatin A]
[1]; chronically infected cells grown in 100 nM for longer periods
  inhibition of viral replication: 99%
[1]; read-out: EC50 for abrogating chronic HIV infection
  EC50: < 0.1 nM
[1]; treatment for 10 or 60 days, read-out: EC50, reduction of viral cellular RNA levels
  EC50: ≥ 0.1 nM
[1]; treatment for 10 or 60 days, read-out: EC90, reduction of viral cellular RNA levels
  EC90: < 10 nM
[2]; absence of Tat, or PMA activation
  basal transcription from the LTR promoter: did not alter basal transcription
[2]; recombinant Tat protein added
  Tat-mediated transcriptional activation of LTR-Luc: Transcriptional repression
[3]
  interaction with Tat (pull-down): interacted directly
[4]
  production of longer viral RNA species (elongation): further decreased the production of longer viral RNA species
[5]
  further decrease of p24 production on addition to the ARVs: 20%
[6]
  T1/2 hepatic microsomes, Human: 1 h
